Test results from PubChem BioAssay AID1259407 (Chemical Carcinogenesis Research Information System (CCRIS), 2018).
Calls of active or inactive are those of the source. How the calls were made is not given here.

System: CCRIS mutagenicity, Ames/micronucleus/aberration tests
Test: CCRIS mutagenicity studies
[1] = Test System: AMES SALMONELLA TYPHIMURIUM, Strain/Indicator: TA98, Metabolic Activation: NONE, Method: STANDARD PLATE
[2] = Test System: AMES SALMONELLA TYPHIMURIUM, Strain/Indicator: TA98, Metabolic Activation: RAT, LIVER, S-9, AROCLOR 1254, Method: STANDARD PLATE
[3] = Test System: AMES SALMONELLA TYPHIMURIUM, Strain/Indicator: TA100, Metabolic Activation: NONE, Method: STANDARD PLATE
[4] = Test System: AMES SALMONELLA TYPHIMURIUM, Strain/Indicator: TA100, Metabolic Activation: RAT, LIVER, S-9, AROCLOR 1254, Method: STANDARD PLATE
[5] = Test System: AMES SALMONELLA TYPHIMURIUM, Strain/Indicator: TA1537, Metabolic Activation: RAT, LIVER, S-9, AROCLOR 1254, Method: STANDARD PLATE
[6] = Test System: AMES SALMONELLA TYPHIMURIUM, Strain/Indicator: TA1538, Metabolic Activation: RAT, LIVER, S-9, AROCLOR 1254, Method: STANDARD PLATE
[7] = Test System: AMES SALMONELLA TYPHIMURIUM, Strain/Indicator: TA98, Metabolic Activation: NONE, Method: PREINCUBATION
[8] = Test System: AMES SALMONELLA TYPHIMURIUM, Strain/Indicator: TA100, Metabolic Activation: NONE, Method: PREINCUBATION

Structure (SMILES): CCOC(=O)CC(=O)CCl
- mutagenic call (Test System: AMES SALMONELLA TYPHIMURIUM, Strain/Indicator: TA98, Metabolic Activation: HAMSTER, LIVER, S-9, AROCLOR 1254, Method: STANDARD PLATE): inactive; negative
- mutagenic call [1]: inactive; negative
- mutagenic call [2]: inactive; negative
- mutagenic call (Test System: AMES SALMONELLA TYPHIMURIUM, Strain/Indicator: TA100, Metabolic Activation: HAMSTER, LIVER, S-9, AROCLOR 1254, Method: STANDARD PLATE): inactive; negative
- mutagenic call [3]: inactive; negative
- mutagenic call [4]: inactive; negative
- mutagenic call (Test System: AMES SALMONELLA TYPHIMURIUM, Strain/Indicator: TA1535, Metabolic Activation: HAMSTER, LIVER, S-9, AROCLOR 1254, Method: STANDARD PLATE): inactive; negative
- mutagenic call (Test System: AMES SALMONELLA TYPHIMURIUM, Strain/Indicator: TA1535, Metabolic Activation: NONE, Method: STANDARD PLATE): inactive; negative
- mutagenic call (Test System: AMES SALMONELLA TYPHIMURIUM, Strain/Indicator: TA1535, Metabolic Activation: RAT, LIVER, S-9, AROCLOR 1254, Method: STANDARD PLATE): inactive; negative
- mutagenic call (Test System: AMES SALMONELLA TYPHIMURIUM, Strain/Indicator: TA1537, Metabolic Activation: HAMSTER, LIVER, S-9, AROCLOR 1254, Method: STANDARD PLATE): inactive; negative
- mutagenic call (Test System: AMES SALMONELLA TYPHIMURIUM, Strain/Indicator: TA1537, Metabolic Activation: NONE, Method: STANDARD PLATE): inactive; negative
- mutagenic call [5]: inactive; negative
- mutagenic call (Test System: AMES SALMONELLA TYPHIMURIUM, Strain/Indicator: TA1538, Metabolic Activation: HAMSTER, LIVER, S-9, AROCLOR 1254, Method: STANDARD PLATE): inactive; negative
- mutagenic call (Test System: AMES SALMONELLA TYPHIMURIUM, Strain/Indicator: TA1538, Metabolic Activation: NONE, Method: STANDARD PLATE): inactive; negative
- mutagenic call [6]: inactive; negative
- mutagenic call (Test System: MOUSE LYMPHOMA, Strain/Indicator: L5178Y (TK+/TK-), Metabolic Activation: NONE, Method: SUSPENSION/PLATE): active; positive. reevaluation of results: positive
- mutagenic call (Test System: MOUSE LYMPHOMA, Strain/Indicator: L5178Y (TK+/TK-), Metabolic Activation: RAT, LIVER, S-9, AROCLOR 1254, Method: SUSPENSION/PLATE): active; positive. reevaluation of results: positive

Structure (SMILES): c1cnc2c(c1)ccc1c3cccnc3ccc12
- mutagenic call (Test System: AMES SALMONELLA TYPHIMURIUM, Strain/Indicator: TA100, Metabolic Activation: POOLED HUMAN LIVER MICROSOMES, Method: PREINCUBATION): active; positive
- mutagenic call (Test System: AMES SALMONELLA TYPHIMURIUM, Strain/Indicator: TA100, Metabolic Activation: RAT, LIVER, S-9, PHENOBARBITAL AND 5,6-BENZOFLAVONE, Method: PREINCUBATION): active; positive
- mutagenic call (Test System: LACZ TRANSGENIC MOUSE (MUTATM MOUSE), Strain/Indicator: LACZ MUTANT FREQUENCY, Method: LIVER, SPLEEN, LUNG, KIDNEY, BONE MARROW, COLON HARVESTED 7 D AFTER LAST DOSE, DNA ISOLATED): active; positive; g:c to t:a transversions in all organs

Structure (SMILES): Oc1ccc2ccc3c4ccccc4cc4ccc1c2c43
- mutagenic call (Test System: AMES SALMONELLA TYPHIMURIUM, Strain/Indicator: TA97, Metabolic Activation: RAT, LIVER, S-9, AROCLOR 1254, Method: STANDARD PLATE): active; positive
- mutagenic call [1]: active; positive
- mutagenic call [2]: active; positive
- mutagenic call [3]: active; positive
- mutagenic call [4]: active; positive
- mutagenic call [5]: active; positive
- mutagenic call (Test System: CHINESE HAMSTER V-79, Strain/Indicator: V-79/8-AZAGUANINE, Metabolic Activation: NONE, Method: STANDARD PLATE): active; positive

Structure (SMILES): Nc1c(S(=O)(=O)O)cc2cc(S(=O)(=O)O)ccc2c1N=Nc1ccc(-c2ccc(N=Nc3c(N)c(S(=O)(=O)O)cc4cc(S(=O)(=O)O)ccc34)c(Cl)c2)cc1Cl
- mutagenic call (Test System: AMES SALMONELLA TYPHIMURIUM, Strain/Indicator: TA1538, Metabolic Activation: HAMSTER, LIVER, S-9, Method: STANDARD PLATE): inactive; negative
- mutagenic call [6]: inactive; negative

Structure (SMILES): CCCOS(=O)(=O)c1ccccc1
- mutagenic call (End Point: IN VITRO MICRONUCLEUS, Test System: MOUSE LYMPHOMA L5178Y CELLS, Metabolic Activation: NONE): inactive; negative; positive only at highly/excessively cytotoxic doses
- mutagenic call (End Point: IN VITRO MICRONUCLEUS, Test System: MOUSE LYMPHOMA L5178Y CELLS, Metabolic Activation: RAT, LIVER, S-9): inactive; negative; authors report results as weakly positive
- mutagenic call [3]: active; positive
- mutagenic call (Test System: AMES SALMONELLA TYPHIMURIUM, Strain/Indicator: TA100, Metabolic Activation: RAT, LIVER, S-9, Method: STANDARD PLATE): active; positive

Structure (SMILES): OCCCCCCO
- mutagenic call [7]: inactive; negative
- mutagenic call (Test System: AMES SALMONELLA TYPHIMURIUM, Strain/Indicator: TA98, Metabolic Activation: RAT LIVER S-9, PHENOBARBITAL AND BETA-NAPHTHOFLAVONE, Method: PREINCUBATION): inactive; negative
- mutagenic call [8]: inactive; negative
- mutagenic call (Test System: AMES SALMONELLA TYPHIMURIUM, Strain/Indicator: TA100, Metabolic Activation: RAT LIVER S-9, PHENOBARBITAL AND BETA-NAPHTHOFLAVONE, Method: PREINCUBATION): inactive; negative
- mutagenic call (Test System: AMES SALMONELLA TYPHIMURIUM, Strain/Indicator: TA1535, Metabolic Activation: NONE, Method: PREINCUBATION): inactive; negative
- mutagenic call (Test System: AMES SALMONELLA TYPHIMURIUM, Strain/Indicator: TA1535, Metabolic Activation: RAT LIVER S-9, PHENOBARBITAL AND BETA-NAPHTHOFLAVONE, Method: PREINCUBATION): inactive; negative
- mutagenic call (Test System: AMES SALMONELLA TYPHIMURIUM, Strain/Indicator: TA1537, Metabolic Activation: NONE, Method: PREINCUBATION): inactive; negative
- mutagenic call (Test System: AMES SALMONELLA TYPHIMURIUM, Strain/Indicator: TA1537, Metabolic Activation: RAT LIVER S-9, PHENOBARBITAL AND BETA-NAPHTHOFLAVONE, Method: PREINCUBATION): inactive; negative
- mutagenic call (Test System: E.COLI, Strain/Indicator: WP2UVRA/PKM101, Metabolic Activation: NONE, Method: PREINCUBATION): inactive; negative
- mutagenic call (Test System: E.COLI, Strain/Indicator: WP2UVRA/PKM101, Metabolic Activation: RAT LIVER S-9, PHENOBARBITAL AND BETA-NAPHTHOFLAVONE, Method: PREINCUBATION): inactive; negative

Structure (SMILES): O=S(=O)(O)c1ccc(N=Nc2c(O)c(S(=O)(=O)O)cc3cc(S(=O)(=O)O)ccc23)cc1
- mutagenic call [7]: inactive; negative
- mutagenic call (Test System: AMES SALMONELLA TYPHIMURIUM, Strain/Indicator: TA98, Metabolic Activation: RAT, LIVER, S-9, PHENOBARBITAL, Method: PREINCUBATION): inactive; negative
- mutagenic call [8]: inactive; negative
- mutagenic call (Test System: AMES SALMONELLA TYPHIMURIUM, Strain/Indicator: TA100, Metabolic Activation: RAT, LIVER, S-9, PHENOBARBITAL, Method: PREINCUBATION): inactive; negative

Structure (SMILES): O[C@@H]1C=Cc2ccc3c(ccc4ccccc43)c2[C@H]1O
- mutagenic call [1]: inactive; negative
- mutagenic call [2]: active; positive
- mutagenic call [3]: inactive; negative
- mutagenic call [4]: active; positive
